We go through twelve molecules from patent EP4711369A1, “1H-[1,2,3]TRIAZOLO[4,5-H]QUINAZOLINE COMPOUNDS AS PROTEIN KINASE INHIBITORS” (Chengdu Cynogen Bio-Pharmaceutical Technology Co., Ltd., priority 2023, dated 2024).

One test concerns the target CDK4/cyclin D1 (Homo sapiens, UniProt P11802). Kind of test: Assay of kinase activity (ADP-Glo). It counts as biochemical. The conditions noted are these: kinase inhibitory activity. An outline of the steps:
(§1)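 Kinase preincubated 10 min with compound in 50 mM Hepes, 10 mM MgCl2, 0.01% Brij35, 2 mM DTT, then substrate/ATP added for 60 min at 25 °C. ADP formed measured by ADP-Glo luminescence; IC50 by nonlinear concentration-response fitting.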
(ADP-Glo turns the ADP formed in a reaction into a luminescent signal.)

Another test has as its target CDK2/cyclin E (Homo sapiens, UniProt P24941). The test can be described thus: Assay of kinase activity (ADP-Glo). It counts as biochemical. As to conditions: kinase inhibitory activity, read-out: CDK2/E1 IC50. Put shortly: as §1
The test system of test [1] is Human ovarian cancer OVCAR3 cells. Kind of test: Assay of cell proliferation (CellTiter-Glo). The class given is cell-based. As to conditions: Homo sapiens, OVCAR-3, 144 h, 6 days, read-out: OVCAR3 IC50 of cell proliferation inhibitory activity. Put shortly: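 OVCAR3 cells, 2000/well in RPMI 1640 with 20% FBS, treated with nine 3-fold dilutions from 10 µM to 0.1 nM (0.5% DMSO) for 6 days at 37 °C. Viability by CellTiter-Glo luminescence; IC50 by four-parameter fit.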

The next test deals with CDK6/cyclin D3 (Homo sapiens, UniProt Q00534). Kind of test: Assay of kinase activity (ADP-Glo). It counts as biochemical. As to conditions: kinase inhibitory activity. Put shortly:
(§2)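 ADP production quantified by luminescence after 60 min kinase reaction at 25 °C, started with substrate/ATP following 10 min enzyme-compound preincubation. Buffer: 50 mM Hepes, 10 mM MgCl2, 0.01% Brij35, 2 mM DTT. IC50 obtained by nonlinear curve fitting of inhibition data.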

The next test deals with CDK9/cyclin T1 (Homo sapiens, UniProt P50750). The test can be described thus: Assay of kinase activity (ADP-Glo). The class given is biochemical. The conditions noted are these: kinase inhibitory activity. Put shortly: as §2
The subject of test [2] is human colon cancer HCT-116 cells. Kind of test: Assay of cell proliferation (CellTiter-Glo). The class given is cell-based. The conditions noted are these: 144 h, 6 days, read-out: HCT-116 IC50 of cell proliferation inhibitory activity. An outline of the steps:
(§3)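 Cells seeded per line at growth-adapted densities, treated 6 days at 37 °C/5% CO2 with nine 3-fold dilutions (10 µM to 0.1 nM final, 0.5% DMSO). Viability by CellTiter-Glo luminescence; IC50 from four-parameter fit.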
A general note: In ATP-based viability assays light output follows the ATP content of the culture.

Test [3] has as its system human gastric cancer MKN1 cells. Kind of test: Assay of cell proliferation (CellTiter-Glo). The class given is cell-based. As to conditions: Homo sapiens, MKN-1, 144 h; MNK1, 6 days; read-out: MKN1 IC50 of cell proliferation inhibitory activity. An outline of the steps:
as §3

The subject of test [4] is human breast cancer HCC1806 cells. The test can be described thus: Assay of cell proliferation (CellTiter-Glo). The class given is cell-based. As to conditions: Homo sapiens, 144 h, 6 days, read-out: HCC1806 IC50 of cell proliferation inhibitory activity. An outline of the steps:
as §3

Test [5] relates to human breast cancer MCF-7 cells. The test can be described thus: Assay of cell proliferation (CellTiter-Glo). The class given is cell-based. As to conditions: 144 h, MCF7 cells, 6 days, read-out: MCF7 IC50 of cell proliferation inhibitory activity. An outline of the steps:
as §3

For test [6], the system named is human acute myeloid leukemia MV-4-11 cells. The test can be described thus: Assay of cell proliferation (CellTiter-Glo). The class given is cell-based. As to conditions: MV4-11, 144 h, 6 days, read-out: MV-4-11 IC50 of cell proliferation inhibitory activity. An outline of the steps: as §3

Sequence of CDK6/cyclin D3 (Q00534 whole entry, species assumed): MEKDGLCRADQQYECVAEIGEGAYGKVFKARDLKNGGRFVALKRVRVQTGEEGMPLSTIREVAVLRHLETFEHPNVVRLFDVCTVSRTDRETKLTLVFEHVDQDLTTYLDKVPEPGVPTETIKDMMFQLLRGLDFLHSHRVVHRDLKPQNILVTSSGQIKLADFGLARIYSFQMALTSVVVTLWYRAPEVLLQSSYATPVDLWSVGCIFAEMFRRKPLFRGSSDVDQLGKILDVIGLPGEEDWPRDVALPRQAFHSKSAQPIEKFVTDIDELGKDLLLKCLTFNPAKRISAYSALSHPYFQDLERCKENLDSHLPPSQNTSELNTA
Sequence of CDK6/cyclin D3 (P30281 whole entry partner, species assumed): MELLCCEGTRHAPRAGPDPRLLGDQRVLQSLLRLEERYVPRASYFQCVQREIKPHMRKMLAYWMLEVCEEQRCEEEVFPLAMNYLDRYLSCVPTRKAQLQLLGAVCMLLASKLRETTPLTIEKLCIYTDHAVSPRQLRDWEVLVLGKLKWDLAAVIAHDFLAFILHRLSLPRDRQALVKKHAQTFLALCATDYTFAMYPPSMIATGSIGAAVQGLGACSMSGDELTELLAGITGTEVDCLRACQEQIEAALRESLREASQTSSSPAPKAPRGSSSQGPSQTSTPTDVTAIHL
Sequence of CDK9/cyclin T1 (P50750 whole entry, species assumed): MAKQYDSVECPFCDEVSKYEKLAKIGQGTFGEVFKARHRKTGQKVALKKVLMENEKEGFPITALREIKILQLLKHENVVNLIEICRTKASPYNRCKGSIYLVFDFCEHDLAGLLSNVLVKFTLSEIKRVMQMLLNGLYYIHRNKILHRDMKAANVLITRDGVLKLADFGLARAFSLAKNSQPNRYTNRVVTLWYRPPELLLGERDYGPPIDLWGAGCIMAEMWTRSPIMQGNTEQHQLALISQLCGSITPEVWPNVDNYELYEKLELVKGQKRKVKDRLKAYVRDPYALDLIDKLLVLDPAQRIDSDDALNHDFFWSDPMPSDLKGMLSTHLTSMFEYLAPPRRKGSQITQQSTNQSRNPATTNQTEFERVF
Sequence of CDK9/cyclin T1 (O60563 whole entry partner, species assumed): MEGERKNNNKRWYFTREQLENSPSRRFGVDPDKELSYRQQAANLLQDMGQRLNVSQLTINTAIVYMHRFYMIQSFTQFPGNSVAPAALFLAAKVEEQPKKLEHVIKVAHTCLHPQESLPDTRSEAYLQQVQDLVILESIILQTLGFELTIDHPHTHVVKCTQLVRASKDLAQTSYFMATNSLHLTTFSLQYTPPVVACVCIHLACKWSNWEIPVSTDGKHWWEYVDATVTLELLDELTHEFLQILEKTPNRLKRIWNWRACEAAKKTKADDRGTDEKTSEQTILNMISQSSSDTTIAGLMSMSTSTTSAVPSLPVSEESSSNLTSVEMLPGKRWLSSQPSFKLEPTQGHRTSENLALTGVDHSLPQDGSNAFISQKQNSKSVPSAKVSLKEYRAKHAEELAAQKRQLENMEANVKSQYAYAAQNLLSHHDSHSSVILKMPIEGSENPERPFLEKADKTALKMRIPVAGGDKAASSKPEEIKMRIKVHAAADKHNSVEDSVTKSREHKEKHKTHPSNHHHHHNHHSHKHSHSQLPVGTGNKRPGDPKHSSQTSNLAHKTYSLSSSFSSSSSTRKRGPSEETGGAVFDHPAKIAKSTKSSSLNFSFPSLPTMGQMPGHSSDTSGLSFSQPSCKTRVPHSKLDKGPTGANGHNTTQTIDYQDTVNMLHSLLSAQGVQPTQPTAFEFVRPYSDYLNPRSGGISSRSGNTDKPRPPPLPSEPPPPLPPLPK
Sequence of CDK4/cyclin D1 (P11802 whole entry, species assumed): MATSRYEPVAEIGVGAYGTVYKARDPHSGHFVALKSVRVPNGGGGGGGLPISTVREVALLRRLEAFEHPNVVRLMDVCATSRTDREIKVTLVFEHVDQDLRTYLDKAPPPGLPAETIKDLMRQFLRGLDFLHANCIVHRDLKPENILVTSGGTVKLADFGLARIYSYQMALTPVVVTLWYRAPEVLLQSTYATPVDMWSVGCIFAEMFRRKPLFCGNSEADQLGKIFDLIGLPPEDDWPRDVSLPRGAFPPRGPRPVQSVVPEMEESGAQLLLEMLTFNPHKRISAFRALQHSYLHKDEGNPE
Sequence of CDK4/cyclin D1 (P24385 whole entry partner, species assumed): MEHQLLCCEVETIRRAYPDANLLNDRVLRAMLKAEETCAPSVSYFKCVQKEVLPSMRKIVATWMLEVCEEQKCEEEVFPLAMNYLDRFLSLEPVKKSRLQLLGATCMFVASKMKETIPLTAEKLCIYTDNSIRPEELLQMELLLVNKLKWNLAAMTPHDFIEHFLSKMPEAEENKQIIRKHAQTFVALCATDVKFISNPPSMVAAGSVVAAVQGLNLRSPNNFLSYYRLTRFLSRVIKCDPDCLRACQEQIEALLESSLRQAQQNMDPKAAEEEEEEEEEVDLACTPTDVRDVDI

On to `CC(C)n1nnc2ccc3cnc(Nc4ccc(C(=O)N5CCC(O)C5)cc4)nc3c21` (stereo not shown) [Example I-3, (3-Hydroxypyrrolidin-1-yl)(4-((1-isopropyl-1H-[1,2,3]triazolo[4,5-H]quinazolin-8-yl)amino)phenyl)methanone], for which the IC50 at CDK4/cyclin D1 came to 1 nM; on CDK2/cyclin E it was 0.4 nM; in test [1], 203 nM; against CDK6/cyclin D3, 4 nM; against CDK9/cyclin T1, 6 nM; in test [2], 94 nM. Further, the IC50 in test [3] was determined as 196 nM; in test [4] it was 302 nM.

`CC(C)n1nnc2ccc3cnc(Nc4ccc(C(=O)N5CC[C@H](N)C5)cc4)nc3c21` [Example I-4, (S)-(3-Aminopyrrolidin-1-yl)(4-((1-isopropyl-1H-[1,2,3]triazolo[4,5-H]quinazolin-8-yl)amino)phenyl)methanone]: the IC50 is 0.5 nM on CDK4/cyclin D1; 0.08 nM on CDK2/cyclin E; 12 nM in [1]; 8 nM against CDK6/cyclin D3; 5 nM on CDK9/cyclin T1; 25 nM in [2]. Besides, the IC50 in test [5] turned out to be 18 nM; in test [3], 8 nM; in [4], 24 nM; in test [6], 3 nM.

In the case of `CN[C@@H]1CCN(C(=O)c2ccc(Nc3ncc4ccc5nnn(C(C)C)c5c4n3)cc2)C1` [Example I-7, (R)-(4-((1-Isopropyl-1H-[1,2,3]triazolo[4,5-H]quinazolin-8-yl)amino)phenyl)(3-(methylamino)pyrrolidin-1-yl)methanone], the IC50 on CDK4/cyclin D1 was 0.8 nM; at CDK2/cyclin E, 0.1 nM; in [1], 14 nM; at CDK6/cyclin D3 it was 3 nM; on CDK9/cyclin T1, 3 nM; in [2] it was 11 nM. The IC50 in test [5] was 8 nM; in test [3], 16 nM; in test [4], 20 nM; in test [6], 5 nM.

`CC(C)n1nnc2ccc3cnc(Nc4ccc(C(=O)N5CCNCC5)c(F)c4)nc3c21` [Example I-19, (2-Fluoro-4-((1-isopropyl-1H-[1,2,3]triazolo[4,5-H]quinazolin-8-yl)amino)phenyl)(piperazin-1-yl)methanone]: the IC50 against CDK4/cyclin D1 was 2 nM; at CDK2/cyclin E it was 1 nM; in [1], 49 nM; against CDK6/cyclin D3, 12 nM; on CDK9/cyclin T1, 8 nM; in [2] it was 21 nM. Moreover, the IC50 stood at 42 nM in test [5], 85 nM in test [3], 379 nM in [4] and 10 nM in [6].

With `CC(C)n1nnc2ccc3cnc(Nc4ccc(C(=O)N5CCOCC5)cc4)nc3c21` [Example I-35, (4-((1-Isopropyl-1H-[1,2,3]triazolo[4,5-H]quinazolin-8-yl)amino)phenyl)(morpholino)methanone], the IC50 was determined as 2 nM at CDK4/cyclin D1; 0.7 nM on CDK2/cyclin E; 224 nM in test [1]; 12 nM against CDK6/cyclin D3; 6 nM at CDK9/cyclin T1; 95 nM in test [2]. The IC50 turned out to be 162 nM in test [5], 21 nM in [3], 233 nM in test [4] and 16 nM in test [6].

Take `CN1CCN(C(=O)c2ccc(Nc3ncc4ccc5nnn([C@@H]6CCC[C@@]6(C)O)c5c4n3)cc2)CC1` [Example I-66, (4-((1-((1R,2R)-2-Hydroxy-2-methylcyclopentyl)-1H-[1,2,3]triazolo[4,5-H]quinazolin-8-yl)amino)phenyl)(4-methylpiperazin-1-yl)methanone]: the IC50 against CDK4/cyclin D1 came out at 1 nM; on CDK2/cyclin E, 0.8 nM; in test [1], 17 nM; at CDK6/cyclin D3, 15 nM; against CDK9/cyclin T1 it was 6 nM; in [3], 8 nM. Further, the IC50 in test [4] is 93 nM; in test [6] it was 2 nM.

As for `C[C@@]1(O)CCC[C@H]1n1nnc2ccc3cnc(Nc4ccc(C(=O)N5CCOCC5)cc4)nc3c21` [Example I-67, (4-((1-((1R,2R)-2-Hydroxy-2-methylcyclopentyl)-1H-[1,2,3]triazolo[4,5-H]quinazolin-8-yl)amino)phenyl)(morpholino)methanone], the IC50 against CDK4/cyclin D1 came out at 2 nM; at CDK2/cyclin E, 1 nM; in [1], 45 nM; on CDK6/cyclin D3, 21 nM; against CDK9/cyclin T1 it was 46 nM; in test [3], 13 nM. The IC50 in test [4] worked out at 137 nM; in test [6], 5 nM.

Turning to `C[C@@]1(O)CCC[C@H]1n1nnc2ccc3cnc(Nc4ccc(C(=O)N5CCS(=O)(=O)CC5)cc4)nc3c21` [Example I-68, (1,1-Dioxothiomorpholino)(4-((1-((1R,2R)-2-hydroxy-2-methylcyclopentyl)-1H-[1,2,3]triazolo[4,5-H]quinazolin-8-yl)amino)phenyl)methanone], the IC50 at CDK4/cyclin D1 is 2 nM; on CDK2/cyclin E, 1 nM; in test [1] it was 181 nM; on CDK6/cyclin D3 it was 34 nM; against CDK9/cyclin T1, 112 nM; in test [3] it was 62 nM. For the same molecule, the results for the IC50 in test [4] and in test [6] were 121 nM and 8 nM, respectively.

For `C[C@@]1(O)CCC[C@H]1n1nnc2ccc3cnc(Nc4ccc(C(=O)N5CCCNCC5)cc4)nc3c21` [Example I-69, (1,4-diazepan-1-yl)(4-((1-((1R,2R)-2-hydroxy-2-methylcyclopentyl)-1H-[1,2,3]triazolo[4,5-H]quinazolin-8-yl)amino)phenyl)methanone], the IC50 worked out at 0.5 nM on CDK4/cyclin D1; 0.05 nM on CDK2/cyclin E; 15 nM in [1]; 3 nM on CDK6/cyclin D3; 2 nM on CDK9/cyclin T1; 6 nM in test [3]. The IC50 was 20 nM in [4] and 3 nM in [6].

`CN1CCCN(C(=O)c2ccc(Nc3ncc4ccc5nnn([C@@H]6CCC[C@@]6(C)O)c5c4n3)cc2)CC1` [Example I-70, (4-((1-((1,2R)-2-hydroxy-2-methylcyclopentyl)-1H-[1,2,3]triazolo[4,5-H]quinazolin-8-yl)amino)phenyl)(4-methyl-1,4-diazepan-1-yl)methanone]: the IC50 against CDK4/cyclin D1 was found to be 0.7 nM; on CDK2/cyclin E, 0.06 nM; in test [1], 2 nM; on CDK6/cyclin D3, 2 nM; against CDK9/cyclin T1, 2 nM; in test [3] it was 1 nM. Besides, the IC50 in test [4] was determined as 3 nM; in test [6], 1 nM.

`C[C@@]1(O)CCC[C@H]1n1nnc2ccc3cnc(Nc4ccc(S(=O)(=O)NCCO)cc4)nc3c21` [Example I-71]: the IC50 against CDK4/cyclin D1 came to 1 nM; on CDK2/cyclin E, 0.9 nM; in [1], 5 nM; against CDK6/cyclin D3 it was 6 nM; against CDK9/cyclin T1 it was 9 nM; in test [3], 3 nM. Besides, the IC50 is 18 nM in [4] and 2 nM in [6].

As for `CC1(O)CCCC1n1c(=O)c(C(F)F)cc2cnc(NC3CCN(S(C)(=O)=O)CC3)nc21` (stereo not shown) [PF06873600 (Ebvaciclib), reference compound], the IC50 turned out to be 118 nM in test [1]; 452 nM against CDK9/cyclin T1; 69 nM in [2]; 24 nM in test [5]; 77 nM in test [3]; 481 nM in test [4]. In addition, in [6], the IC50 is 100 nM.
